Source: ChEMBL document CHEMBL1123766, “2-Amino- and 2-guanidino-1,2,3,4-tetrahydro-1,4-epoxynaphthalenes as conformationally defined analogues of alpha-adrenergic agents” (J Med Chem, 1987)

Assays:
[1] = target: T1, Adrenergic receptor alpha-2 (Rattus norvegicus) (UniProt P22086+P19328+P22909); test: Evaluated for alpha-2 adrenergic receptor activity in the field stimulated rat vas deferens preparation; assay type: tissue-based
[2] = target: T1, Adrenergic receptor alpha-2 (Rattus norvegicus); test: Evaluated for alpha-2 adrenergic receptor activity in the field stimulated rat vas deferens preparation.; assay type: tissue-based
[3] = target: T1, Adrenergic receptor alpha-2 (Rattus norvegicus); test: Evaluated for alpha-2 adrenergic receptor activity in the field stimulated rat vas deferens preparation.* Confirmed by pretreatment with reserpine (3 mg/kg) 16 hr prior to sacrifice. Stimulatory effects blocked by prazosin (78 nM). Value estimated in the presen
[4] = target: T1, Adrenergic receptor alpha-2 (Rattus norvegicus); test: Evaluated for alpha-2 adrenergic receptor activity in the field stimulated rat vas deferens preparation.*-confirmed by pretreatment with reserpine (3 mg/kg) 16 hr prior to sacrifice. Stimulatory effects blocked by prazosin (78 nM).
[5] = target: T1, Adrenergic receptor alpha-2 (Rattus norvegicus); test: Approximate efficacy based on maximal effect produced by […] was determined against the alpha-2 adrenergic receptor; assay type: protein assay
[6] = target: T1, Adrenergic receptor alpha-2 (Rattus norvegicus); test: Evaluated for alpha-2 adrenergic receptor activity in the field stimulated rat vas deferens preparation.* Stimulatory effects blocked by prazosin (78 nM).; assay type: tissue-based

Row | Structure (SMILES) | pD2 [1] | Efficacy [5] | further results
1 | N[C@@H]1CC2OC1c1ccccc12 (some centres undefined) | < 3 |  | 
2 | COc1ccc(OC)c2c1C1C[C@@H](N)C2O1 (some centres undefined) |  |  | pD2 [2]: 3.49
3 | N[C@H]1CC2OC1c1ccccc12 (some centres undefined) |  |  | pD2 [3]: 4.9
4 | COc1ccc(OC)c2c1C1C[C@H](N)C2O1 (some centres undefined) |  | 0.9 | pD2 [4]: 5.08
5 | COc1ccc(OC)c2c1C1CC(N=C(N)N)C2O1 (centres undefined) |  | 0.7 | pD2 [6]: 4.75
6 | COc1ccc(OC)c(C(O)C(C)N)c1 (centres undefined) | 6.48 | 1 | 
